Entries after “also recorded” stand apart in the source; their conditions may differ.
Experiments:
E. coli IspF [1] = target: T1, E. coli IspF (Escherichia coli, UniProt P62617); details: cited from earlier work
T1 sequence (P62617 1-159): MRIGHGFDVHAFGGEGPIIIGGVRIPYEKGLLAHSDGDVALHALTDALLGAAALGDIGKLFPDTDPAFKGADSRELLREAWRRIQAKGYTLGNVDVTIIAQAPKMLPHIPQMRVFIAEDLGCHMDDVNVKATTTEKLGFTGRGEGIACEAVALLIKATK

[2] = target: B. pseudomallei IspF (BpIspF) (Burkholderia pseudomallei, UniProt Q3JRA0); test: biochemical; type: binding; details: for Kd: KD,app
E. coli IspF [3] = target: T1, E. coli IspF; type: binding; details: pH 7.4
E. coli IspF [4] = target: T1, E. coli IspF; details: cited from earlier work; remark: listed apart in the source
BpIspF = BpIspF (Burkholderia pseudomallei, UniProt Q3JRA0); type: binding
Chain of BpIspF (Q3JRA0 whole entry, looked up): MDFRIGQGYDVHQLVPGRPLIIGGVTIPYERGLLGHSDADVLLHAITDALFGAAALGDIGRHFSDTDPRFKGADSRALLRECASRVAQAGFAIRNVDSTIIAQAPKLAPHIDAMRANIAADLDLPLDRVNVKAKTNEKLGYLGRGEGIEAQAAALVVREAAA

Chain of B. pseudomallei IspF (BpIspF) (Q3JRA0 whole entry, looked up): as above

SMILES: CC(C)=CCC/C(C)=C/CC/C(C)=C/CO[P@@](=O)(O)OP(=O)(O)O (stereo in doubt) [farnesyl diphosphate (FPP), farnesyl diphosphate]
- direct feedback inhibition of E. coli IspF (in words) (E. coli IspF [1]): did not observe direct feedback inhibition

SMILES: N[C@H](Cc1c[nH]c2ccccc12)C(=O)NO [D-tryptophan hydroxamate]
- change in affinity relative to L-tryptophan hydroxamate (3) [2]: less than a twofold drop in affinity; also recorded: less than two-fold weaker
- N (stoichiometry) ([2]; pH 7.4): 0.7

SMILES: N[C@H](Cc1c[nH]c2ccccc12)C(=O)O [D-tryptophan, reference compound]
- Kd [2]: > 1000 µM
- binding (in words) ([2]; pH 7.4): undetectable binding; also recorded: did not show appreciable binding

SMILES: N[C@@H](Cc1c[nH]c2ccccc12)C(=O)NO [L-tryptophan hydroxamate (3), L-tryptophan hydroxamate]
- N (stoichiometry) (E. coli IspF [3]): 1.2 ± 0.3
- Kd (E. coli IspF [4]): ~2 µM
- binding at pH 6.0 compared to pH 7.4 (fold weaker) [2]: approximately 25 fold
- N (stoichiometry) ([2]; pH 7.4): 1.5 ± 0.2
- N (stoichiometry) ([2]; pH 8): 1.4 ± 0.4
- Relative Percent Saturation Transfer, proton A (BpIspF): 100%
- Relative Percent Saturation Transfer, proton B (BpIspF): 60–65%
- Relative Percent Saturation Transfer, proton C (BpIspF): 80–85%
- Relative Percent Saturation Transfer, proton D (BpIspF): 75–80%
- Relative Percent Saturation Transfer, proton E (BpIspF): 80–85%
- Relative Percent Saturation Transfer, proton F (BpIspF): 25–30%
- Relative Percent Saturation Transfer, proton G (BpIspF): 50–55%

SMILES: N[C@@H](Cc1c[nH]c2ccccc12)C(=O)O [L-tryptophan, reference compound]
- Kd [2]: > 1000 µM
- binding (in words) ([2]; pH 7.4): did not show appreciable binding

SMILES: CC(C)=CCC/C(C)=C/COP(=O)(O)OP(=O)(O)O [geranyl diphosphate (GPP), geranyl diphosphate, reference compound]
- interaction with BpIspF by STD NMR (in words) (BpIspF): did not show significant interaction

— article PMC8407143 (Bioorganic & medicinal chemistry letters, 2021)
